In PubChem BioAssay (NCI):
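1) Cells in 96-well plates. 2) Compound, 48 h, 5 concentrations. 3) Linear interpolation between surrounding doses. 4) Unreached endpoint = highest concentration. At the GI50, growth is halved. TGI: total growth inhibition.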

Columns and labels:
Test in all cases: DTP human tumour cell line panel, 48 h
[1] = system: 786-0 renal
[2] = system: A498 renal
[3] = system: A549 NSCLC
[4] = system: ACHN renal
[5] = system: BT-549 breast
[6] = system: CAKI-1 renal
[7] = system: CCRF-CEM leukemia
[8] = system: COLO 205 colon
[9] = system: DU-145 prostate
[10] = system: EKVX NSCLC
[11] = system: HCC-2998 colon
[12] = system: HCT-116 colon
[13] = system: HCT-15 colon
[14] = system: HL-60(TB) leukemia
[15] = system: HOP-62 NSCLC
[16] = system: HOP-92 NSCLC
[17] = system: HS 578T breast
[18] = system: HT29 colon
[19] = system: IGROV1 ovarian
[20] = system: K-562 leukemia
[21] = system: KM12 colon
[22] = system: LOX IMVI melanoma
[23] = system: M14 melanoma
[24] = system: MALME-3M melanoma
[25] = system: MCF7 breast
[26] = system: MDA-MB-231 breast
[27] = system: MDA-MB-435
[28] = system: MOLT-4 leukemia
[29] = system: NCI-H226 lung
[30] = system: NCI-H23 lung
[31] = system: NCI-H460 lung
[32] = system: NCI-H522 lung
[33] = system: NCI/ADR-RES ovarian
[34] = system: OVCAR-3 ovarian
[35] = system: OVCAR-4 ovarian
[36] = system: OVCAR-5 ovarian
[37] = system: OVCAR-8 ovarian
[38] = system: PC-3 prostate
[39] = system: RPMI-8226 leukemia
[40] = system: RXF 393 renal
[41] = system: SF-268 CNS
[42] = system: SF-295 CNS
[43] = system: SF-539 CNS
[44] = system: SK-MEL-2 melanoma
[45] = system: SK-MEL-28 melanoma
[46] = system: SK-MEL-5 melanoma
[47] = system: SK-OV-3 ovarian
[48] = system: SN12C renal
[49] = system: SNB-19 CNS
[50] = system: SNB-75 CNS
[51] = system: SW-620 colon
[52] = system: T-47D breast
[53] = system: TK-10 renal
[54] = system: U251 CNS
[55] = system: UACC-257 melanoma
[56] = system: UACC-62 melanoma
[57] = system: UO-31 renal

Question: What does the source list for `c1ccc2nc(N/N=C3\CCCCC3C3CCCCC3)ccc2c1` (centres undefined)?
Answer: GI50 [1]: 7.12 µM; TGI [1]: 21.6 µM; GI50 [2]: 11.4 µM; TGI [2]: 27.9 µM; GI50 [3]: 6.26 µM; TGI [3]: 29.1 µM; GI50 [4]: 8.02 µM; TGI [4]: 20.8 µM; GI50 [5]: 9.09 µM; TGI [5]: 22.1 µM; GI50 [6]: 4.78 µM; TGI [6]: 25.3 µM; GI50 [7]: 2.83 µM; TGI [7]: 14 µM; GI50 [8]: 3.26 µM; TGI [8]: 12.7 µM; GI50 [9]: 11.9 µM; TGI [9]: 24.8 µM; GI50 [10]: 5.22 µM; TGI [10]: 20.2 µM; GI50 [11]: 3.46 µM; TGI [11]: 14 µM; GI50 [12]: 3.32 µM; TGI [12]: 13.5 µM; GI50 [13]: 3.52 µM; TGI [13]: 14.8 µM; GI50 [14]: 3.74 µM; TGI [14]: 25.6 µM; GI50 [15]: 11.8 µM; TGI [15]: 25.7 µM; GI50 [16]: 2.2 µM; TGI [16]: 10 µM; GI50 [17]: 10.4 µM; TGI [17]: 30.9 µM; GI50 [18]: 3.7 µM; TGI [18]: 14.6 µM; GI50 [19]: 2.92 µM; TGI [19]: 15.4 µM; GI50 [20]: 4.85 µM; TGI [20]: > 100 µM; GI50 [21]: 4.27 µM; TGI [21]: 15.7 µM; GI50 [22]: 3.25 µM; TGI [22]: 13.1 µM; GI50 [23]: 10.3 µM; TGI [23]: 26.5 µM; GI50 [24]: 2.36 µM; TGI [24]: 12.9 µM; GI50 [25]: 2.46 µM; TGI [25]: 11.7 µM; GI50 [26]: 5.49 µM; TGI [26]: 20.5 µM; GI50 [27]: 6.95 µM; TGI [27]: 21.3 µM; GI50 [28]: 3.2 µM; TGI [28]: 17.1 µM; GI50 [29]: 6.3 µM; TGI [29]: 22.9 µM; GI50 [30]: 3.89 µM; TGI [30]: 17.3 µM; GI50 [31]: 3.84 µM; TGI [31]: 16.5 µM; GI50 [32]: 4.97 µM; TGI [32]: 20.4 µM; GI50 [33]: 5.29 µM; TGI [33]: 21 µM; GI50 [34]: 13.9 µM; TGI [34]: 27 µM; GI50 [35]: 3.9 µM; TGI [35]: 22.8 µM; GI50 [36]: 8.27 µM; TGI [36]: 21.5 µM; GI50 [37]: 11.2 µM; TGI [37]: 29 µM; GI50 [38]: 3.07 µM; TGI [38]: 17.6 µM; GI50 [39]: 2.02 µM; TGI [39]: 4.76 µM; GI50 [40]: 9.21 µM; TGI [40]: 26.9 µM; GI50 [41]: 10.8 µM; TGI [41]: 24.9 µM; GI50 [42]: 2.4 µM; TGI [42]: 11.8 µM; GI50 [43]: 7.69 µM; TGI [43]: 21.4 µM; GI50 [44]: 3.48 µM; TGI [44]: 16.6 µM; GI50 [45]: 10.9 µM; TGI [45]: 24.9 µM; GI50 [46]: 2.58 µM; TGI [46]: 10.4 µM; GI50 [47]: 14.8 µM; TGI [47]: 34.3 µM; GI50 [48]: 6.54 µM; TGI [48]: 21.1 µM; GI50 [49]: 11.4 µM; TGI [49]: 24.6 µM; GI50 [50]: 11.1 µM; TGI [50]: 30.9 µM; GI50 [51]: 4.12 µM; TGI [51]: 16.3 µM; GI50 [52]: 4.33 µM; TGI [52]: 21.8 µM; GI50 [53]: 6.72 µM; TGI [53]: 19.5 µM; GI50 [54]: 6.44 µM; TGI [54]: 20.8 µM; GI50 [55]: 10.3 µM; TGI [55]: 27.5 µM; GI50 [56]: 3.89 µM; TGI [56]: 15.6 µM; GI50 [57]: 2.89 µM; TGI [57]: 14.4 µM
